Values joined by “and” are separate entries in the source; they are usually repeats but may differ in a detail not shown here. Equal values may be shown once.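 Each compound was tested at five concentrations against cells in 96-well plates for 48 hours. GI50 marks 50% less growth. TGI denotes the concentration required for complete inhibition of growth.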
Key:
Assay in all cases: DTP human tumour cell line panel, 48 h
DU-145 prostate = tested on: DU-145 prostate
UO-31 renal = tested on: UO-31 renal
RXF 393 renal = tested on: RXF 393 renal
SF-295 CNS = tested on: SF-295 CNS
T-47D breast = tested on: T-47D breast
BT-549 breast = tested on: BT-549 breast
SF-268 CNS = tested on: SF-268 CNS
HT29 colon = tested on: HT29 colon
UACC-257 melanoma = tested on: UACC-257 melanoma
K-562 leukemia = tested on: K-562 leukemia

SMILES	TGI (DU-145 prostate)	TGI (UO-31 renal)	TGI (RXF 393 renal)	TGI (SF-295 CNS)	TGI (T-47D breast)	TGI (BT-549 breast)	TGI (SF-268 CNS)	TGI (HT29 colon)	TGI (UACC-257 melanoma)	GI50 (DU-145 prostate)	GI50 (UO-31 renal)	GI50 (RXF 393 renal)	GI50 (SF-295 CNS)	GI50 (T-47D breast)	GI50 (BT-549 breast)	GI50 (SF-268 CNS)	GI50 (K-562 leukemia)	TGI (K-562 leukemia)	GI50 (HT29 colon)	GI50 (UACC-257 melanoma)
CC(=O)c1c(C)n(C)c2c1nnc1ccccc12	> 100 µM	8.11 µM	> 100 µM	> 100 µM	> 100 µM	> 100 µM	> 100 µM	> 100 µM	> 100 µM											
O=C(Nc1ccc(Cl)cc1F)c1cc(I)ccc1O	47.9 µM	3.18 µM	5.2 µM	3.75 µM	6.3 µM	2.64 µM	15.1 µM	> 100 µM	6.64 µM	3.1 µM	0.385 µM	1.57 µM	1.89 µM	1.44 µM	0.735 µM	1.67 µM	1.09 µM	> 100 µM	3.57 µM	0.812 µM
COc1cnc2c(c1)C(=O)c1c-2n(CCCN2CCC(O)CC2)c(=O)c2cc(F)ccc12	1.41 µM	0.619 µM	0.838 µM		0.86 µM	14.4 µM	8.32 µM		1.81 µM	0.174 µM	0.135 µM	0.217 µM		0.0996 µM	0.697 µM	0.272 µM	0.216 µM	2.31 µM		0.296 µM
O=C(Nc1cccc(Oc2nnc(Cl)c3ccccc23)c1)Nc1ccc(Cl)c(C(F)(F)F)c1	4.08 µM	4.19 µM	3.87 µM	3.7 µM	2.24 µM	3.07 µM	5.5 µM	3.14 µM	3.37 µM	1.27 µM	0.176 µM	1.17 µM	0.657 µM	0.384 µM	0.674 µM	0.793 µM	0.63 µM	4.27 µM	0.771 µM	0.952 µM
COC1CCC(O)C(/C=C/[N+](=O)[O-])C1 (centres undefined)	15.2 µM		2.91 µM	23.9 µM	44.8 µM	8.49 µM	15 µM	11.2 µM	5.48 µM									22 µM		
Oc1c(CN2CCCC2)cc(COCc2ccc(Br)cc2)c2cccnc12	11 µM	0.903 µM	3.41 µM	3.98 µM	3.08 µM	6.49 µM	6.28 µM	13.2 µM	3.02 µM	0.868 µM	0.0569 µM	1.04 µM	1.19 µM	0.501 µM	1.81 µM	0.76 µM	0.397 µM	10.3 µM	3.53 µM	1.34 µM
O=[N+]([O-])c1ccc2c(N3CCC(CCCC4CCN(c5ncnc6cc([N+](=O)[O-])ccc56)CC4)CC3)ncnc2c1	> 100 µM	> 100 µM	> 100 µM	> 100 µM	> 69.3 µM	> 70.6 µM	> 100 µM	> 86.4 µM	> 100 µM	> 96.2 µM	27.3 µM	30.8 µM	5.53 µM	0.454 µM	6.33 µM	> 53.3 µM	0.217 µM	> 100 µM	21.7 µM	1.55 µM
O=S(=O)(O)c1ccc(-c2nnc(-c3ccccn3)nc2-c2ccc(S(=O)(=O)O)o2)o1	> 100 µM	> 100 µM	> 100 µM	> 100 µM	> 100 µM	> 100 µM	> 100 µM	> 100 µM										> 100 µM		
CNC(=O)c1ccc2cc(C3(O)CCn4cncc43)ccc2c1 (centres undefined)	> 100 µM	> 100 µM	> 100 µM	> 100 µM	> 100 µM	> 100 µM	> 100 µM	> 100 µM	> 100 µM	> 100 µM	> 100 µM	> 100 µM	> 100 µM	> 100 µM	> 100 µM	> 100 µM	> 100 µM	> 100 µM	> 100 µM	> 100 µM
Cc1ccc(C)c(NC(=O)NCc2ccc(Cl)cc2)c1	> 100 µM	> 100 µM	28.6 µM	> 100 µM	> 100 µM	> 100 µM	> 100 µM	> 100 µM	> 100 µM									98.6 µM		
COc1ccc(-c2nn(-c3cccc(NC(=O)c4ccc5c(c4)OCCO5)c3)cc2-c2ccncc2)cc1Cl	24.9 µM	17.3 µM	4.52 µM	4.43 µM	47.7 µM	7.4 µM	34 µM	12.1 µM	20.5 µM	3.99 µM	2.57 µM	1.23 µM	1.56 µM	2.96 µM	1.79 µM	3.75 µM	0.71 µM	15.9 µM	1.88 µM	3.17 µM
CCN1C(=O)NC(=O)C(C)(N2C(=O)c3c(F)c(F)c(F)c(F)c3C2=O)C1=O (centres undefined)	11.6 µM	6.98 µM	4.43 µM	23.9 µM	11.9 µM	13.3 µM	7.43 µM	8.58 µM	14 µM	3.13 µM	2.39 µM	1.99 µM	9.67 µM	3.42 µM	3.82 µM	2.6 µM	1.66 µM	3.71 µM	2.4 µM	4.26 µM
Cc1cnc(/C=N\NC(N)=S)c2cccc(N)c12	> 100 µM	10.3 µM and 4.4 µM	> 100 µM	> 100 µM	> 100 µM	> 100 µM	> 100 µM	> 100 µM	> 38.8 µM	1.68 µM	1.88 µM	2.47 µM	2.36 µM	2.49 µM	3.52 µM	1.51 µM	2.82 µM	> 100 µM	5.11 µM	4.81 µM
CN(N=O)C(=O)N[C@@H](C=O)[C@@H](O)[C@H](O)[C@H](O)CO	> 750 µM	> 750 µM	> 750 µM	621 µM and > 750 µM	> 750 µM	> 750 µM	> 750 µM	> 750 µM	> 750 µM		> 750 µM	> 750 µM	> 750 µM			> 750 µM	> 750 µM	560 µM and > 750 µM	> 750 µM	> 750 µM
COC(=O)[C@]12CC[C@@H](C)[C@H](C)[C@@H]1C1=CC[C@@H]3[C@@]4(C)C(C=O)=C[C@@](C)(COC(=O)c5ccco5)[C@@H]4C(=O)C[C@@]3(C)[C@]1(C)CC2	> 100 µM	> 100 µM	35.3 µM	> 100 µM	50.6 µM	> 100 µM	> 100 µM	> 100 µM	0.666 µM	8.8 µM	3.54 µM	3.35 µM	3.99 µM	3.71 µM	4.06 µM	7.03 µM	3.95 µM	> 100 µM	7.92 µM	0.148 µM
C/C(=C\C1=C(Cl)C(=O)c2ccccc2C1=O)C(=O)O	34.6 µM	28.9 µM	33.1 µM	33.4 µM	48.7 µM	27.5 µM	32.2 µM	36.7 µM		17.6 µM	15.5 µM	18.3 µM	19 µM	15.3 µM	14.2 µM	18.3 µM	23.1 µM	54.9 µM	20.1 µM	
Cc1cccc(C(=O)/C=C/SC(=NC#N)SCc2ccccc2)c1	46.4 µM	89 µM	57.6 µM	88.6 µM	> 100 µM	36.7 µM	> 100 µM	> 100 µM	35.9 µM	19.7 µM	30.9 µM	22.7 µM	21.2 µM	21.6 µM	16.1 µM	28.8 µM	22 µM	> 100 µM	56.5 µM	18.1 µM
CC(=O)c1cc2c(cc1Nc1c3ccccc3nc3occ(Cl)c13)OCO2		> 100 µM	0.523 µM	0.188 µM	> 100 µM	> 100 µM	> 100 µM	> 100 µM	> 100 µM	0.227 µM	1.09 µM	0.193 µM	0.0402 µM		0.157 µM	0.697 µM	0.037 µM	> 100 µM	0.439 µM	> 100 µM
O=C([O][Hg][CH2]C1COC([CH2][Hg][O]C(=O)c2ccccc2)CO1)c1ccccc1 (centres undefined)	33 µM	31.5 µM	22.8 µM and 2.76 µM	41.7 µM and 31.6 µM	4.06 µM and 4.17 µM	20.4 µM and 3.27 µM	34 µM and 15.5 µM	30.5 µM and 3.26 µM	28.1 µM and 3.98 µM	18.8 µM	17.7 µM	8.88 µM and 1.45 µM	19.2 µM and 17.8 µM	1.88 µM and 1.7 µM	7.71 µM and 1.69 µM	17.9 µM and 3.51 µM	0.648 µM and 0.945 µM	2.87 µM	15.7 µM and 1.7 µM	14.8 µM and 1.98 µM
C[C@@H]1CC[C@@H]2[C@@H]1[C@H](OC(=O)/C=C/c1ccccc1)[C@]1(C3CCCCC3)C[C@@H](NC(=O)CO)[C@@]2(C)O1	32.9 µM	18.7 µM	13.8 µM	28.4 µM	30.8 µM	26.7 µM	30 µM	35.5 µM	42.1 µM	18.4 µM	4.8 µM	3.29 µM	14.9 µM	14.3 µM	13.2 µM	14.3 µM	21.1 µM	45.1 µM	18.9 µM	25.2 µM
CCN1C(NN)=NS(=O)(=O)c2ccccc21	> 100 µM	> 100 µM	> 100 µM	> 100 µM	> 100 µM	> 100 µM	> 100 µM	> 100 µM	> 100 µM									> 100 µM		
CN(C)c1ncnc2c1nnn2C1OC(CO)C(O)C1O (centres undefined)	> 100 µM	> 100 µM	> 100 µM	> 58.3 µM	2.81 µM	> 100 µM	> 100 µM	> 24.7 µM	> 100 µM	0.106 µM	0.4 µM	0.386 µM	0.221 µM	0.141 µM	1.09 µM	0.479 µM	0.0973 µM	> 100 µM	0.128 µM	0.515 µM
CN(C)c1ccc(/C=C2\N=C(c3ccc([N+](=O)[O-])cc3)OC2=O)cc1	> 100 µM		> 100 µM	> 100 µM	> 100 µM	> 100 µM	> 100 µM	> 100 µM	> 100 µM									> 100 µM		
CCOC(=O)c1c2c(n(Cc3ccccc3)c1C)-c1ccccc1C(=O)C2=O	12.4 µM	31.6 µM	36.6 µM	48.4 µM	31.8 µM	29.7 µM	47.2 µM	25.7 µM	69.2 µM	4.21 µM	16.3 µM	17.1 µM	19.6 µM	13.2 µM	15.7 µM	19.5 µM	17.1 µM	> 100 µM	11.8 µM	28.4 µM
O=C(CF)N(O)c1ccc(/C=C/c2ccccc2)cc1	6.96 µM	26.2 µM	25.1 µM	11.4 µM	> 34.1 µM	> 100 µM	> 100 µM	> 100 µM	5.59 µM	1.48 µM	3.58 µM	3.13 µM	1.74 µM	1.06 µM	4.37 µM	2.78 µM	7.92 µM	> 100 µM	3.52 µM	1.67 µM
O=C1c2ccccc2C(=Cc2ccccc2)c2ccccc21	6.94 µM	10.2 µM	9.63 µM	13.6 µM	9.65 µM	15.6 µM	16.6 µM	4.33 µM	23.9 µM	2.44 µM	2.1 µM	3.06 µM	2.59 µM	2.68 µM	3.71 µM	3.34 µM	0.673 µM	16 µM	1.17 µM	5.22 µM
CN1CCN(Cc2ccc(NC(=O)c3cncc(C#Cc4cncc5ncccc45)c3)cc2C(F)(F)F)CC1	16.8 µM	6.35 µM	6.46 µM	15.8 µM	27.3 µM	20.4 µM	17.6 µM	11.9 µM	12.4 µM	4.64 µM	1.25 µM	1.77 µM	3.72 µM	10.9 µM	7.9 µM	3.99 µM		11.4 µM	1.04 µM	2.47 µM
